Experimental data reported in ChEMBL document CHEMBL3507680, “University of Dundee, Gates Library screen for HepG2 cell viability”.
Several values for one entry are separate records, joined by “and”; a condition that tells them apart may be missing. Identical values can stand only once.

Assay: Human HepG2 cell viability assay in 384 well format
Format: toxicity, cell-based
Parameters: dose 125 nL, time 70.5 hour; cytotoxicity at 70.5 h: concentration not given beside the values
Conditions: for cytotoxicity at 70.5 h: HepG2 cells, read-out: Inhibition

| Compound | cytotoxicity at 70.5 h | Inhibition (hepg2, 70.5 h, 70.5 h) |
| --- | --- | --- |
| Cc1ccc(CC(=O)N2CCCC(c3n[nH]c4nccnc34)C2)cc1 (stereo unspecified) | -1.21% | – |
| COc1cccc(COCC(=O)N2CCCN(CC(N)=O)CC2)c1 | -9.55% | – |
| CCN1CC2(CC1=O)CN(Cc1ccsc1)CCN(C(=O)C(C)C)C2 (stereo unspecified) | -15.8% | – |
| CCN1CC2(CC1=O)CN(Cc1ccco1)CCN(C(=O)N(C)C)C2 (stereo unspecified) | -8.06% | – |
| CC(C)n1cc(CN2CCCN(C(=O)c3ccnn3C)CC2)cn1 | -2.89% | – |
| FC(F)CN1CCC(NCCc2ccc(-n3cccn3)cc2)CC1 | -5.54% | – |
| Cc1oncc1C(=O)N1CC[C@H]2CO[C@H](CN3CCCC3)[C@H]2C1 | -7.95% | – |
| CC(Nc1nc(-c2ccncc2)nc2c1CCNC2)c1ccccc1 (stereo unspecified) | -9.03% | – |
| CC(C)(C)Oc1ccc(C(=O)N2CCOCC2c2ncon2)cc1 (stereo unspecified) | -0.751% | – |
| CSCC(=O)N1CCCC(c2cc(C)[nH]n2)C1 (stereo unspecified) | -12% | – |
| CN(C)c1ccc(C(=O)NCCCc2ccccn2)cn1 | -1.92% | – |
| CC(=O)N[C@@H]1CN(C2CCN(c3cccc(Cl)c3)CC2)C[C@H]1C(C)C | -7.17% | – |
| O=S(=O)(NCCCN1CCCC1)c1cc(F)cc(F)c1 | 27.2% | – |
| Cn1cccc1C(=O)N1CCC2(CC1)CCN2S(C)(=O)=O | -4.8% | – |
| Cc1cnc(N2CCCC3(CCCN3CC(=O)N(C)C)C2)nc1 (stereo unspecified) | 12.8% | – |
| O=C(Nc1nc2c(s1)CCC2)NC1CCCC1 | -9.48% | – |
| CN(C)S(=O)(=O)N1CCC2(CCCN(Cc3ccc(F)cc3)C2=O)C1 (stereo unspecified) | -2.15% | – |
| CN(Cc1ccno1)C(=O)c1cccc(CC2CCNCC2)c1 | 6.56% | – |
| O=C(O)CC[C@@H]1CN(c2ccncc2)CC[C@@H]1N1CCOCC1 | -3.32% | – |
| CCc1cc(OC)c(OC)cc1C(=O)Nc1cccnc1 | 13% | – |
| CC1=Nc2c(c(=O)[nH]n2C(C)C)C(c2ccsc2)S1 (stereo unspecified) | – | -5.291% and -4.016% |
| CC(C)(CNC(=O)NCCc1ccn(-c2ccccc2)n1)C(N)=O | -6.77% | – |
| CCc1[nH]c2ccc(CNC(=O)c3cnc(N)nc3C)cc2c1C | -3.2% | – |
| CCC(=O)N1CCC(Cc2ccccc2-c2ccncc2)(C(=O)NC)C1 (stereo unspecified) | -7.46% | – |

| Compound | cytotoxicity at 70.5 h | Inhibition (hepg2, 70.5 h, 70.5 h) |
| --- | --- | --- |
| O=C1NCC(C(=O)Nc2ncc(Cc3cccc(F)c3)s2)N1 (stereo unspecified) | -6.09% | – |
| CC(Cc1ccco1)NC(=O)Nc1cnn(CC(N)=O)c1 (stereo unspecified) | -1.8% | – |
| Cc1cnn(C2CN(CC(=O)NCCCc3ccccc3)C2)c1 | 24.2% | – |
| COCCOC[C@]1(CNCc2ccc(OC)cc2)C[C@@H](O)[C@@H](O)C1 | -7.9% | – |
| O=C1CCC(=O)N1c1nn(Cc2c(F)cccc2Cl)cc1Cl | 6.93% | – |
| Cc1ccccc1OCCN1CCCC(c2cc(C(N)=O)[nH]n2)C1 (stereo unspecified) | -6.71% | – |
| CCn1cnnc1CNC(=O)N1CCC(OCc2ccccc2)CC1 | -2.7% | – |
| Cc1nc(CCNc2ccc(-c3nc(C)c(C)c(=O)[nH]3)cn2)cs1 | -1.37% | – |
| CCN1CCC(Cn2ccc3c(OC)c(OC)ccc3c2=O)C1 (stereo unspecified) | -2.32% | – |
| CCOC(=O)[C@@H]1[C@@H](c2ccccc2)CN2CCN(C(C)=O)C[C@H]12 | -4.08% | – |
| N#Cc1ccsc1C(=O)N1CCCN(Cc2cscn2)CC1 | 5.01% | – |
| c1cnc(N2CCCC(Cc3nccs3)C2)nc1 (stereo unspecified) | -3.8% | – |
| Cc1ccc(OCC2CCCN(c3nc(CO)cs3)C2)cc1 (stereo unspecified) | -0.763% | – |
| CN(Cc1cnc2ccccc2c1)C(=O)C(c1ccccc1F)N(C)C (stereo unspecified) | -10.3% | – |
| O=C(CCN1CCCCC1)Nc1c2c(cc3c1CCC3)CCC2 | -1.77% | – |
| COC(=O)N1CCCCC1C(=O)N1CCN(c2cccnc2)CC1 (stereo unspecified) | 6.34% | – |
| CCCNCc1cn(C)nc1-c1cccnc1 | -7.26% | – |
| COc1cccc(OC)c1OCCN1C(=O)CCNC1=O | 26.5% | – |
| CCC1=N[C@@]2(CC[C@@H]3CN(S(=O)(=O)CC(C)C)C[C@@H]32)C(=O)N1CC | 1.37% | – |
| CCN1CCCC(CNC(=O)C2(c3cccc(Cl)c3)CC2)C1 (stereo unspecified) | -0.608% | – |
| CCc1ccc(NC(=O)N2Cc3c(CN(C)C)nn(C)c3C2)cc1 | -2.56% | – |
| Cc1nc(C)n(CC2CN(CCc3ccccn3)CCO2)n1 (stereo unspecified) | -7.39% | – |
| CC(C)N1C(=O)CN(CCCO)CC1(C)C | -9.87% | – |
| Cc1cnc(N2CCCC3(CCN(Cc4csc(C)n4)C3=O)C2)nc1 (stereo unspecified) | 3.6% | – |

| Compound | cytotoxicity at 70.5 h | Inhibition (hepg2, 70.5 h, 70.5 h) |
| --- | --- | --- |
| CCn1cc(CNC(=O)CC(C)C)cn1 | 3.41% | – |
| CO[C@H]1CN(S(=O)(=O)c2ccc(C)cc2)C[C@@]12CCCO2 | -6.6% | – |
| Cc1c(CN2Cc3nccn3CC2c2ccccc2)cnn1C (stereo unspecified) | -4.09% | – |
| COc1cccc(C(=O)N2CCCC(CNS(C)(=O)=O)C2)c1 (stereo unspecified) | -8.76% | – |
| CCCN1CCC(N(Cc2ncc(C)o2)C(C)=O)C1 (stereo unspecified) | -8% | – |
| Cc1cccc2c1nc1n2[C@@H](CNC2CCCCC2)COC1 | 8.3% | – |
| Cc1nc(C)n(CC2CCCCN2Cc2nc(-c3ccco3)no2)n1 (stereo unspecified) | -5.26% | – |
| COCCCC1(CO)CCCN(C(=O)c2cnc(C3CC3)nc2)C1 (stereo unspecified) | -4.81% | – |
| O=C(CN1CCCCC1)Nc1ncc(Br)cc1Br | 48.9% | – |
| CNC(=O)c1cc(NC(=O)NCC2CCS(=O)(=O)C2)ccc1OC (stereo unspecified) | 19.9% | – |
| O=C(c1cc(Cl)cc(Cl)c1)N1CCN(c2nccs2)CC1 | -1.02% | – |
| O=C(O)c1ccnc(-c2ccnc(N3CCCCCC3)n2)c1 | 17.6% | – |
| COCc1cn(C2CCN(Cc3ccc(Cl)s3)CC2)nn1 | -12.4% | – |
| O=C(c1cccc(S(=O)(=O)NCCc2nccs2)c1)N1CCOCC1 | -3.1% | – |
| CCc1nc(CC(=O)N2CCn3c(C)nnc3C2)cs1 | -6.05% | – |
| Cc1nc(CN2CC(CO)Oc3ccccc32)sc1C (stereo unspecified) | -3.25% | – |
| CN1CCN(CC2CC2)C(=O)c2cnc(N3CCC(CO)CC3)nc21 | -4.14% | – |
| Cc1nc(C(C)C)sc1C(=O)NS(=O)(=O)c1ccc(C#N)cc1 | -9.15% | – |
| Cc1nc(C)n(CC2CCCCN2Cc2nnc(C3CC3)o2)n1 (stereo unspecified) | 0.151% | – |
| Cc1nc(CN2C(=O)CCC23CCN(Cc2ccoc2)CC3)cs1 | -4.67% | – |
| O=C(Cc1cccs1)N1Cc2nc(COCC3CC3)oc2C1 | 0.985% | – |
| CCn1nc(C)c2c1cnn2CC(=O)N1CCN(C)CC1 | -1.92% | – |
| Cc1ccc(S(C)(=O)=O)cc1C(=O)NS(C)(=O)=O | -7.69% | – |
| CCc1ncc(C(=O)NCCN(C)S(C)(=O)=O)cn1 | 17.2% | – |

| Compound | cytotoxicity at 70.5 h | Inhibition (hepg2, 70.5 h, 70.5 h) |
| --- | --- | --- |
| COc1nn(C)c2c1CCCN(C(=O)COc1ccccc1)C2 | -104% | – |
| CC(Cc1cccc(Cl)c1)NC(=O)Nc1cnn(CC(N)=O)c1 (stereo unspecified) | -1.82% | – |
| CCn1ccnc1CN1CCC(Oc2cccc(F)c2)(C(=O)O)CC1 | -4.69% | – |
| CCCN1CCN(S(=O)(=O)c2ncn(C)c2Cl)CC1 | -4.77% | – |
| Cc1ccc(C)c(OC(C)C(=O)Nc2cccnc2)c1 (stereo unspecified) | -3.32% | – |
| COCCCN1CC2(CCCCN2C(=O)COC)CC1=O (stereo unspecified) | -8.44% | – |
| CC(C)Oc1cccc(CN2CCC(C(C)N3CCOCC3)CC2)c1 (stereo unspecified) | -8.8% | – |
| CC(c1ncc(C(C)(C)C)o1)N1CCN(Cc2ccncc2)CC1 (stereo unspecified) | -12.1% | – |
| CC(SCC(=O)NC(N)=O)c1ccccc1F (stereo unspecified) | -8.18% | – |
| Cc1ccccc1C1(CNC(=O)NCCc2nnc3n2CCC3)CC1 | -17.5% | – |
| Cc1ncsc1C(=O)N1CCCC1c1c(C)nn(C)c1Cl (stereo unspecified) | -13.8% | – |
| CC(CC(=O)N1CCCN(Cc2nccn2C)CC1)n1cccc1 (stereo unspecified) | -12.4% | – |
| Cc1[nH]ccc1C(=O)N(Cc1ccc(O)cc1)CC1CC1 | -3.9% | – |
| CCc1n[nH]c(=O)c(C(=O)N2CCSC(C)(C)C2)c1CC | -10.1% | – |
| Cc1cnc(N2CC[C@@H]3CN(CCC(C)C)S(=O)(=O)[C@@H]3CC2)nc1 | -1.61% | – |
| Cc1[nH]ccc1C(=O)NC1CCC(N2C(=O)CCC2=O)CC1 (stereo unspecified) | -2.84% | – |
| Cn1ccnc1CCNS(=O)(=O)c1cccnc1 | -4.82% | – |
| Cc1nnc2n1CCN(C(=O)C(OC1CCCC1)c1ccccc1)C2 (stereo unspecified) | -1.74% | – |
| NC(=O)CCc1cccc(C2CCNCC2)n1 | 1.83% | – |
| CNC(=O)c1ccc(CNc2ccncc2Cl)cc1 | -98.3% | – |
| CCOC(=O)C1(Cc2cccc(OC)c2)CCN(Cc2ncc[nH]2)CC1 | -8.46% | – |
| c1csc(CN2CCC3(CCCN3CC3CC3)CC2)n1 | -4.63% | – |
| CCN1CC2(CC1=O)CN(C(=O)C(C)C)CCN(S(=O)(=O)CC)C2 (stereo unspecified) | -4.9% | – |
| Cn1cc(CC2CC(=O)N(Cc3ccccc3OC(F)F)C2=O)cn1 (stereo unspecified) | -0.223% | – |

| Compound | cytotoxicity at 70.5 h | Inhibition (hepg2, 70.5 h, 70.5 h) |
| --- | --- | --- |
| Cc1sc(CNS(N)(=O)=O)nc1-c1ccc(Cl)cc1 | -2.62% | – |
| Cc1cccc2nc(CNCc3cccc4c3OCCCO4)cn12 | -0.513% | – |
| O=C([C@H]1CCCO1)N1CCN(Cc2cccnc2)c2ncccc2C1 | 0.581% | – |
| CCn1nc2nc(SCC(=O)O)cc(C(F)F)c2c1C | -5.31% | – |
| CN1C(=O)CC(N(C)Cc2nc3ccccc3c(=O)[nH]2)C1=O (stereo unspecified) | 23.4% | – |
| COCc1nc(N(C)C)ncc1C(=O)Nc1ccn(C)n1 | 5.17% | – |
| CSCc1noc(CNC2CCCC(C)(C)C2)n1 (stereo unspecified) | -5.82% | – |
| CCn1cc(S(=O)(=O)Nc2ccc3[nH]c(C4CCC4)nc3c2)cn1 | 24.1% | – |
| O=S(=O)(CCNCc1cc(O)c2cc(F)ccc2n1)N1CCCC1 | 17.6% | – |
| CCCNC(=O)c1ccc(S(=O)(=O)NC2(COC)CCCC2)cc1 | -5.28% | – |
| CCS(=O)(=O)c1nccn1-c1cccc(F)c1 | -9.95% | – |
| O=C(CC1CC1)N1C[C@@H]2CCN(c3cccnc3)C[C@@H]2C1 | -11.6% | – |
| CCN(Cc1cccc2c1OCO2)C(=O)Nc1ccncc1 | 5.81% | – |
| C[C@@H](CO)NC(=O)c1ccc2nc(NS(C)(=O)=O)sc2c1 | -2.43% | – |
| Cc1nc2sccn2c1CN(CCCN(C)C)Cc1ccco1 | -21.2% | – |
| CN1CCN(C(=O)C2SCCc3sccc32)CC1 (stereo unspecified) | -6.9% | – |
| CNC(=O)c1cc(S(=O)(=O)C(C)C)cs1 | 1.49% | – |
| CN1CCC(N2CCN3C(=O)NC[C@H]3C2)CC1 | -3.25% | – |
| Cc1ccsc1CN(C)Cn1nccc1-c1cccnc1 | -2.36% | – |
| CC(NC(=O)N(C)Cc1cnn(C)c1)c1nncn1C (stereo unspecified) | -2.09% | – |
